Values after ≈ are worked out from the molar mass of the structure shown. Active and inactive are the calls of the source. The rule behind the calls is not given here.
Tests used:
Pimelobacter simplex [1] = experiment: Antimicrobial activity against Nocardioides simplex DSM 20130 by serial dilution method; assay type: functional
Nocardia sp. [2] = experiment: Antimicrobial activity against Nocardia sp. DSM 43069 by serial dilution method; assay type: functional
[3] = test system: Schizosaccharomyces pombe; experiment: Antimicrobial activity against Schizosaccharomyces pombe DSM 70572 by serial dilution method; assay type: functional
Rhodotorula glutinis [4] = experiment: Antimicrobial activity against Rhodotorula glutinis DSM 10134 by serial dilution method; assay type: functional
Trichosporon oleaginosus [5] = experiment: Antimicrobial activity against Trichosporon oleaginosus DSM 11815 by serial dilution method; assay type: functional; conditions: Cutaneotrichosporon oleaginosum
Mucor hiemalis [6] = experiment: Antimicrobial activity against Mucor hiemalis DSM 2656 by serial dilution method; assay type: functional
Aspergillus clavatus [7] = experiment: Antimicrobial activity against Aspergillus clavatus DSM 816 by serial dilution method; assay type: functional
Debaryomyces hansenii [8] = experiment: Antimicrobial activity against Debaryomyces hansenii DSM 3428 by serial dilution method; assay type: functional
Staphylococcus aureus [9] = experiment: Antimicrobial activity against Staphylococcus aureus DSM 346 at 6.7 to 67 ug/ml by serial dilution method; assay type: functional, organism-based
[10] = test system: Mycolicibacterium diernhoferi; experiment: Antimicrobial activity against Mycobacterium diernhoferi DSM 43524 at 6.7 to 67 ug/ml by serial dilution method; assay type: functional, organism-based
Micrococcus luteus [11] = experiment: Antimicrobial activity against Micrococcus luteus DSM 20030 at 6.7 to 67 ug/ml by serial dilution method; assay type: functional, organism-based
Paenibacillus polymyxa [12] = experiment: Antimicrobial activity against Paenibacillus polymyxa DSM 36 at 6.7 to 67 ug/ml by serial dilution method; assay type: functional
Pseudomonas aeruginosa [13] = experiment: Antimicrobial activity against Pseudomonas aeruginosa DSM 50071 at 6.7 to 67 ug/ml by serial dilution method; assay type: functional, organism-based
[14] = test system: Chromobacterium violaceum; experiment: Antimicrobial activity against Chromobacterium violaceum DSM 30191 at 6.7 to 67 ug/ml by serial dilution method; assay type: functional, organism-based
Escherichia coli [15] = experiment: Antimicrobial activity against Escherichia coli DSM 1116 at 6.7 to 67 ug/ml by serial dilution method; assay type: functional, organism-based
Candida albicans [16] = experiment: Antimicrobial activity against Candida albicans DSM 1665 at 6.7 to 67 ug/ml by serial dilution method; assay type: functional, organism-based
Wickerhamomyces anomalus [17] = experiment: Antimicrobial activity against Pichia anomala DSM 6766 at 6.7 to 67 ug/ml by serial dilution method; assay type: functional, organism-based
Eremothecium coryli [18] = experiment: Antimicrobial activity against Nematospora coryli DSM 6981 at 6.7 to 67 ug/ml by serial dilution method; assay type: functional, organism-based
Saccharomyces cerevisiae [19] = experiment: Antimicrobial activity against Saccharomyces cerevisiae BTc-3A at 6.7 to 67 ug/ml by serial dilution method; assay type: functional, organism-based
Pichia membranifaciens [20] = experiment: Antimicrobial activity against Pichia membranifaciens DSM 21959 at 6.7 to 67 ug/ml by serial dilution method; assay type: functional, organism-based
Amorphotheca resinae [21] = experiment: Antimicrobial activity against Hormoconis resinae DSM 1203 at 6.7 to 67 ug/ml by serial dilution method; assay type: functional, organism-based
Penicillium capsulatum [22] = experiment: Antimicrobial activity against Penicillium capsulatum DSM 2210 at 6.7 to 67 ug/ml by serial dilution method; assay type: functional
[23] = Cytotoxicity against mouse L929 cells after 5 days; assay type: cell-based; conditions: read-out: LC50
Pimelobacter simplex [24] = experiment: Antimicrobial activity against Nocardioides simplex DSM 20130 at 6.7 to 67 ug/ml by serial dilution method; assay type: functional
Nocardia sp. [25] = experiment: Antimicrobial activity against Nocardia sp. DSM 43069 at 6.7 to 67 ug/ml by serial dilution method; assay type: functional, organism-based
[26] = test system: Schizosaccharomyces pombe; experiment: Antimicrobial activity against Schizosaccharomyces pombe DSM 70572 at 6.7 to 67 ug/ml by serial dilution method; assay type: functional, organism-based
Rhodotorula glutinis [27] = experiment: Antimicrobial activity against Rhodotorula glutinis DSM 10134 at 6.7 to 67 ug/ml by serial dilution method; assay type: functional, organism-based
Trichosporon oleaginosus [28] = experiment: Antimicrobial activity against Trichosporon oleaginosus DSM 11815 at 6.7 to 67 ug/ml by serial dilution method; assay type: functional; conditions: Cutaneotrichosporon oleaginosum
Mucor hiemalis [29] = experiment: Antimicrobial activity against Mucor hiemalis DSM 2656 at 6.7 to 67 ug/ml by serial dilution method; assay type: functional, organism-based
Aspergillus clavatus [30] = experiment: Antimicrobial activity against Aspergillus clavatus DSM 816 at 6.7 to 67 ug/ml by serial dilution method; assay type: functional, organism-based
Debaryomyces hansenii [31] = experiment: Antimicrobial activity against Debaryomyces hansenii DSM 3428 at 6.7 to 67 ug/ml by serial dilution method; assay type: functional, organism-based
Eremothecium coryli [32] = experiment: Antimicrobial activity against Nematospora coryli DSM 6981 by serial dilution method; assay type: functional
Bacillus subtilis [33] = experiment: Antimicrobial activity against Bacillus subtilis DSM 10 by serial dilution method; assay type: functional
Staphylococcus aureus [34] = experiment: Antimicrobial activity against Staphylococcus aureus DSM 346 by serial dilution method; assay type: functional
[35] = test system: Mycolicibacterium diernhoferi; experiment: Antimicrobial activity against Mycobacterium diernhoferi DSM 43524 by serial dilution method; assay type: functional
Micrococcus luteus [36] = experiment: Antimicrobial activity against Micrococcus luteus DSM 20030 by serial dilution method; assay type: functional
Paenibacillus polymyxa [37] = experiment: Antimicrobial activity against Paenibacillus polymyxa DSM 36 by serial dilution method; assay type: functional
[38] = test system: Chromobacterium violaceum; experiment: Antimicrobial activity against Chromobacterium violaceum DSM 30191 by serial dilution method; assay type: functional
Escherichia coli [39] = experiment: Antimicrobial activity against Escherichia coli DSM 1116 by serial dilution method; assay type: functional
Candida albicans [40] = experiment: Antimicrobial activity against Candida albicans DSM 1665 by serial dilution method; assay type: functional
Wickerhamomyces anomalus [41] = experiment: Antimicrobial activity against Pichia anomala DSM 6766 by serial dilution method; assay type: functional, organism-based
Saccharomyces cerevisiae [42] = experiment: Antimicrobial activity against Saccharomyces cerevisiae BTc-3A by serial dilution method; assay type: functional, organism-based
Pichia membranifaciens [43] = experiment: Antimicrobial activity against Pichia membranifaciens DSM 21959 by serial dilution method; assay type: functional, organism-based
Amorphotheca resinae [44] = experiment: Antimicrobial activity against Hormoconis resinae DSM 1203 by serial dilution method; assay type: functional, organism-based
Penicillium capsulatum [45] = experiment: Antimicrobial activity against Penicillium capsulatum DSM 2210 by serial dilution method; assay type: functional
Pseudomonas aeruginosa [46] = experiment: Antimicrobial activity against Pseudomonas aeruginosa DSM 50071 by serial dilution method; assay type: functional, organism-based
Bacillus subtilis [47] = experiment: Antimicrobial activity against Bacillus subtilis DSM 10 at 6.7 to 67 ug/ml by serial dilution method; assay type: functional, organism-based

Compound	MIC (Pimelobacter simplex [1]) [µg/mL]	MIC (Rhodotorula glutinis [4]) [µg/mL]	MIC (Trichosporon oleaginosus [5]) [µg/mL]	MIC (Mucor hiemalis [6]) [µg/mL]	MIC (Aspergillus clavatus [7]) [µg/mL]	inhibition (Staphylococcus aureus [9])	inhibition [10]	inhibition (Micrococcus luteus [11])	inhibition (Paenibacillus polymyxa [12])	inhibition (Pseudomonas aeruginosa [13])	inhibition [14]	inhibition (Escherichia coli [15])	inhibition (Candida albicans [16])	inhibition (Wickerhamomyces anomalus [17])	inhibition (Saccharomyces cerevisiae [19])	inhibition (Pichia membranifaciens [20])	inhibition (Amorphotheca resinae [21])	inhibition (Penicillium capsulatum [22])	CC50 at 120 h [23] [µg/mL]	inhibition [26]	also measured
C=C(C)/C=C/c1ccc2[nH]cc(C/C=N/O)c2c1	33.3 (≈ 139 µM)	67 (≈ 279 µM)	67 (≈ 279 µM)	67 (≈ 279 µM)	67 (≈ 279 µM)	inactive	inactive	inactive	inactive	inactive	inactive	inactive	inactive	inactive	inactive	inactive	inactive	inactive	6.8 (≈ 28.3 µM)		MIC (Nocardia sp. [2]): 33.3 µg/mL (≈ 139 µM); MIC [3]: 67 µg/mL (≈ 279 µM); MIC (Debaryomyces hansenii [8]): 67 µg/mL (≈ 279 µM); inhibition (Eremothecium coryli [18]): inactive
C=C(C)/C=C/c1ccc2[nH]cc(CCO)c2c1						inactive	inactive	inactive	inactive	inactive	inactive	inactive	inactive	inactive	inactive	inactive	inactive	inactive	> 10	inactive	inhibition (Pimelobacter simplex [24]): inactive; inhibition (Nocardia sp. [25]): inactive; inhibition (Rhodotorula glutinis [27]): inactive; inhibition (Eremothecium coryli [18]): inactive; inhibition (Trichosporon oleaginosus [28]): inactive; inhibition (Mucor hiemalis [29]): inactive; inhibition (Aspergillus clavatus [30]): inactive; inhibition (Debaryomyces hansenii [31]): inactive
O=C(c1nccs1)c1c[nH]c2ccccc12		67 (≈ 294 µM)	67 (≈ 294 µM)	33.3 (≈ 146 µM)	33.3 (≈ 146 µM)	inactive	inactive	inactive	inactive	inactive	inactive	inactive	inactive	inactive	inactive	inactive	inactive	inactive	> 10	inactive	MIC (Eremothecium coryli [32]): 33.3 µg/mL (≈ 146 µM); inhibition (Pimelobacter simplex [24]): inactive; inhibition (Nocardia sp. [25]): inactive; inhibition (Debaryomyces hansenii [31]): inactive
CN(C)[C@@H]1C(O)=C(C(N)=O)C(=O)[C@@]2(O)C(O)=C3C(=O)c4c(O)cccc4[C@@](C)(O)[C@H]3[C@H](O)[C@@H]12.Cl [OXYTETRACYCLINE HYDROCHLORIDE]	16.6																				MIC (Bacillus subtilis [33]): 8.3 µg/mL; MIC (Nocardia sp. [2]): 8.3 µg/mL; MIC (Staphylococcus aureus [34]): 0.21 µg/mL; MIC [35]: < 0.25 µg/mL; MIC (Micrococcus luteus [36]): 3.3 µg/mL; MIC (Paenibacillus polymyxa [37]): 8.3 µg/mL; MIC [38]: 1 µg/mL; MIC (Escherichia coli [39]): 1 µg/mL
NYSTATIN		0.52	1	2.1	2.1																MIC [3]: 33.3 µg/mL; MIC (Candida albicans [40]): 4.2 µg/mL; MIC (Wickerhamomyces anomalus [41]): 4.2 µg/mL; MIC (Eremothecium coryli [32]): 4.2 µg/mL; MIC (Saccharomyces cerevisiae [42]): 1.7 µg/mL; MIC (Pichia membranifaciens [43]): 0.83 µg/mL; MIC (Amorphotheca resinae [44]): < 0.25 µg/mL; MIC (Penicillium capsulatum [45]): 16.6 µg/mL; MIC (Debaryomyces hansenii [8]): 6.7 µg/mL
GENTAMICIN																					MIC (Pseudomonas aeruginosa [46]): 67 µg/mL
C=C(C)/C=C/c1ccc2[nH]cc(C/C=N\O)c2c1	33.3 (≈ 139 µM)	67 (≈ 279 µM)	67 (≈ 279 µM)	67 (≈ 279 µM)	67 (≈ 279 µM)	inactive	inactive	inactive	inactive	inactive	inactive	inactive	inactive	inactive	inactive	inactive	inactive	inactive	6.8 (≈ 28.3 µM)		MIC (Nocardia sp. [2]): 33.3 µg/mL (≈ 139 µM); MIC [3]: 67 µg/mL (≈ 279 µM); MIC (Debaryomyces hansenii [8]): 67 µg/mL (≈ 279 µM); inhibition (Eremothecium coryli [18]): inactive
CC1=C(CCO)C(=O)c2ccccc2C1=O		67 (≈ 310 µM)		67 (≈ 310 µM)				inactive				inactive		inactive						inactive	MIC (Bacillus subtilis [33]): 33.3 µg/mL (≈ 154 µM); MIC (Staphylococcus aureus [34]): 33.3 µg/mL (≈ 154 µM); MIC [38]: 67 µg/mL (≈ 310 µM); MIC (Candida albicans [40]): 67 µg/mL (≈ 310 µM)
CC(=O)/C=C/c1ccc2[nH]cc(CCO)c2c1						inactive		inactive		inactive	inactive	inactive	inactive	inactive						inactive	inhibition (Bacillus subtilis [47]): inactive; inhibition (Rhodotorula glutinis [27]): inactive; inhibition (Mucor hiemalis [29]): inactive

Source: ChEMBL document CHEMBL3259789, “Indothiazinone, an indolyl thiazolyl ketone from a novel myxobacterium belonging to the Sorangiineae” (J Nat Prod, 2014)
